US20170056345A1 (priority 2014, published 2017)

How the values were obtained:
[1] = test system: M. tuberculosis; test: time-kill curve method, bactericidal activity (CFU) on solid media at pH6; type: cell-based; settings: FIG. 2
Method: The synergistic effect of AHA in overcoming urea protection of M. tuberculosis and in enhancing the efficacy of PZA is illustrated.
We employed a time-kill curve method to determine the bactericidal activity of PZA and a combination of PZA and acetohydroxamic acid (AHA) against M. tuberculosis. We cultured M. tuberculosis on solid media at pH6. CFU values were determined for samples treated with pyrazinamide (PZA), urea at a typical body fluid concentration and acetohydroxamic acid. […] Consequently, our results provide that AHA acts not only as a PZA booster, but also as an anti-mycobacterial agent, in some instances, in a synergistic manner with the traditional anti-mycobacterial agent used.

[2] = biological target: mycobacterial urease (Mycobacterium bovis, UniProt A1KJR2); test: cell-based; design: species or system M. bovis BCG
Chain of mycobacterial urease (A1KJR2 whole entry, looked up): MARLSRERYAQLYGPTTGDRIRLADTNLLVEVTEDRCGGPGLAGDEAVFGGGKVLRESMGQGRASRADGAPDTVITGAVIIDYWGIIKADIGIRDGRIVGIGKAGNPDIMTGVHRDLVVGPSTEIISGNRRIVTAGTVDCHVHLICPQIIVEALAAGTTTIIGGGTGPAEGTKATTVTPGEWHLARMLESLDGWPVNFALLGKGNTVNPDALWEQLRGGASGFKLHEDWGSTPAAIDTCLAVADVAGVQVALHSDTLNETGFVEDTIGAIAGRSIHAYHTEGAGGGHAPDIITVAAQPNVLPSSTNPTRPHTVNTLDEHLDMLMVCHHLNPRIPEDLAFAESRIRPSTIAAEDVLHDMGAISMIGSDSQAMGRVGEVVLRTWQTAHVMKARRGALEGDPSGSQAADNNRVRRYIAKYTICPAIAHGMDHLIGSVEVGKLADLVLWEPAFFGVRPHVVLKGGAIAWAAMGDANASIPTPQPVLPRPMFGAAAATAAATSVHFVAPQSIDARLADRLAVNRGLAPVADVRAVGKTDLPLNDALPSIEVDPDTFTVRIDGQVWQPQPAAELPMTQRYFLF

Compound	kill (bactericidal activity, CFU) ([1]; PZA alone, M. tuberculosis on solid media at pH6)	effect on kill rate ([1]; AHA combined with PZA (urea present), solid media pH6)	effect on urea protection against the PZA kill ([1]; AHA with PZA and urea at a typical body fluid concentration, solid media pH6)	IC50 [2] [µM]
NC(=O)c1cnccn1 [PZA, pyrazinamide]	modest			
CC(=O)NO [acetohydroxamic acid]		substantially increased the kill rate	prevented urea protection	100 to 200
